Earlier results, collected in patent publication US5683715A, “Taxane-containing phosphatidylcholine liposomes” (The Liposome Company, Inc., priority 1995, dated 1997).

Legend:
[1] = system: ovarian and breast cancers, malignant melanoma, colon cancer, leukemias and lung cancer; settings: literature
tubulin = settings: Schiff and Horowitz 1980

In the case of `CC(=O)O[C@H]1C(=O)[C@@]2(C)[C@H]([C@H](OC(=O)c3ccccc3)[C@]3(O)C[C@H](OC(=O)[C@H](O)[C@@H](NC(=O)c4ccccc4)c4ccccc4)C(C)=C1C3(C)C)[C@]1(OC(C)=O)CO[C@@H]1C[C@@H]2O` [Paclitaxel], the Activity against cancers [1] is listed as “activity against ovarian and breast cancers, as well as against malignant melanoma, colon cancer, leukemias and lung cancer” and the “Concentrations of optimal effect on polymerization and stabilization of microtubules” value (tubulin) is listed as “near stoichiometric equivalence with tubulin dimers”.
